These are literature values, as cited in patent publication US20250127711A1, “COMPOSITION AND METHOD FOR TREATING FUNGAL SKIN CONDITIONS AND INFLAMMATION” (CMPD Licensing, LLC, priority 2016, published 2025).

Series [1] relates to mineralocorticoid activity.

SMILES strings stand for the structures.

On to `C[C@H]1C[C@H]2[C@@H]3CCC4=CC(=O)C=C[C@]4(C)[C@@]3(F)[C@@H](O)C[C@]2(C)[C@@]1(O)C(=O)CCl` [Clobetasol], for which the mineralocorticoid activity result in series [1] is on record as “slight degree”. Moreover, the glucocorticoid activity entry in the series with glucocorticoid activity is listed as “high degree”.

With `CC(=O)OCC(=O)[C@@]12OC(C)(C)O[C@@H]1C[C@H]1[C@@H]3C[C@H](F)C4=CC(=O)C=C[C@]4(C)[C@@]3(F)[C@@H](O)C[C@@]12C` [Fluocinonide], for the setting “ethanol”, the solubility in ethanol result is on record as “slightly soluble”. The solubility in water entry (water) is given as “practically insoluble”.
